The source of these data is ChEMBL document CHEMBL3425436, “Assessing the oral bioavailability of difluorosialic acid prodrugs, potent viral neuraminidase inhibitors, using a snapshot PK screening assay” (Bioorg Med Chem Lett, 2015).

Each structure is given as a SMILES string.

Series [1] concerns Mus musculus. Briefly: Total plasma concentration in CD1 mouse assessed as (2R,3R,4R,5R,6R)-5-acetamido-4-amino-2,3-difluoro-6-((1R,2R)-1,2,3-trihydroxypropyl)tetrahydro-2H-pyran-2-carboxylic acid at 30 mg/kg, po measured at 20 mins by reversed-phase UPLC/MS analysis. Format: ADME, organism-based. Particulars: in vivo. Set-up: dose 30 mg/kg, route oral.
Series [2] has as its system Mus musculus. Briefly: Prodrug conversion in CD1 mouse assessed as formation of (2R,3R,4R,5R,6R)-5-acetamido-4-amino-2,3-difluoro-6-((1R,2R)-1,2,3-trihydroxypropyl)tetrahydro-2H-pyran-2-carboxylic acid at 30 mg/kg, po. Format: ADME, organism-based. More on the design: dose 30 mg/kg, route oral. To be noted: in vivo.
Series [3] deals with Mus musculus. Briefly: Total plasma concentration in CD1 mouse assessed as (2R,3R,4R,5R,6R)-5-acetamido-4-amino-2,3-difluoro-6-((1R,2R)-1,2,3-trihydroxypropyl)tetrahydro-2H-pyran-2-carboxylic acid at 30 mg/kg, po measured at 60 mins by reversed-phase UPLC/MS analysis. Format: ADME, organism-based. More on the design: dose 30 mg/kg, route oral. To be noted: in vivo, 1 h.
A short description of series [4]: Total plasma concentration in CD1 mouse at 30 mg/kg, po measured at 20 mins by reversed-phase UPLC/MS analysis. More on the design: dose 30 mg/kg, route oral. The series is classed as ADME, organism-based.
Series [5] is described as follows: Total plasma concentration in CD1 mouse at 30 mg/kg, po measured at 60 mins by reversed-phase UPLC/MS analysis. The series is classed as ADME, organism-based. Set-up: dose 30 mg/kg, route oral.
A short description of series [6]: Half life in CD1 mouse at 30 mg/kg, po. Particulars: in vivo. Set-up: dose 30 mg/kg, route oral. The series is classed as ADME, organism-based.
Series [7] is described as follows: Tmax in CD1 mouse at 30 mg/kg, po. Particulars: in vivo. The series is classed as ADME, organism-based. Set-up: dose 30 mg/kg, route oral.
The nature of series [8]: Cmax in CD1 mouse at 30 mg/kg, po. The series is classed as ADME, organism-based. More on the design: dose 30 mg/kg, route oral. Particulars: in vivo.
Series [9] deals with Mus musculus. Briefly: AUC in CD1 mouse at 30 mg/kg, po. The series is classed as ADME, organism-based, Plasma. Set-up: dose 30 mg/kg, route oral. To be noted: in vivo.
Series [10] is described as follows: Oral bioavailability in CD1 mouse at 30 mg/kg. Format: ADME, organism-based. Particulars: in vivo.
The nature of series [11]: Total plasma concentration in CD1 mouse at 50 mg/kg, po measured at 20 mins by reversed-phase UPLC/MS analysis. The series is classed as ADME, organism-based. Set-up: dose 50 mg/kg, route oral.
Series [12] is described as follows: Total plasma concentration in CD1 mouse at 50 mg/kg, po measured at 60 mins by reversed-phase UPLC/MS analysis. Format: ADME, organism-based. Set-up: dose 50 mg/kg, route oral.
The subject of series [13] is Mus musculus. Briefly: AUC in CD1 mouse at 10 mg/kg, iv. More on the design: dose 10 mg/kg, route intravenous. The series is classed as ADME, organism-based, Plasma. Particulars: in vivo.
Series [14] is described as follows: Metabolic stability in mouse plasma at 10 uM measured at 15 mins. Format: ADME, cell-free. Particulars: read-out: Stability.
The subject of series [15] is Mus musculus. Briefly: Tmax in CD1 mouse assessed as (2R,3R,4R,5R,6R)-5-acetamido-4-amino-2,3-difluoro-6-((1R,2R)-1,2,3-trihydroxypropyl)tetrahydro-2H-pyran-2-carboxylic acid at 30 mg/kg, po. To be noted: in vivo. Format: ADME, organism-based. Set-up: dose 30 mg/kg, route oral.
The nature of series [16]: Metabolic stability in mouse plasma at 10 uM measured at 60 mins. The series is classed as ADME, cell-free. To be noted: read-out: Stability.
Series [17] in a line: Stability in simulated gastric fluid at 10 uM at pH 1 measured at 60 mins. The series is classed as ADME. To be noted: read-out: Stability.
Series [18] can be described thus: Stability in simulated gastric fluid at 10 uM at pH 4 measured at 15 mins. The series is classed as ADME. To be noted: read-out: Stability.
Series [19] can be described thus: Stability in simulated gastric fluid at 10 uM at pH 1 measured at 15 mins. Format: ADME. Particulars: read-out: Stability.
Series [20] has as its system Mus musculus. Briefly: Cmax in CD1 mouse assessed as (2R,3R,4R,5R,6R)-5-acetamido-4-amino-2,3-difluoro-6-((1R,2R)-1,2,3-trihydroxypropyl)tetrahydro-2H-pyran-2-carboxylic acid at 30 mg/kg, po. To be noted: in vivo. The series is classed as ADME, organism-based. Set-up: dose 30 mg/kg, route oral.
Series [21] has as its system Mus musculus. The experiment in a line: Oral bioavailability in CD1 mouse assessed as (2R,3R,4R,5R,6R)-5-acetamido-4-amino-2,3-difluoro-6-((1R,2R)-1,2,3-trihydroxypropyl)tetrahydro-2H-pyran-2-carboxylic acid at 30 mg/kg. Format: ADME, organism-based. Particulars: in vivo.
Series [22] is described as follows: Stability in simulated gastric fluid at 10 uM at pH 4 measured at 60 mins. Format: ADME. To be noted: read-out: Stability.
Series [23] has as its system Mus musculus. Briefly: AUC in CD1 mouse assessed as (2R,3R,4R,5R,6R)-5-acetamido-4-amino-2,3-difluoro-6-((1R,2R)-1,2,3-trihydroxypropyl)tetrahydro-2H-pyran-2-carboxylic acid at 30 mg/kg, po. Format: ADME, organism-based, Plasma. Set-up: dose 30 mg/kg, route oral. To be noted: in vivo.

For the compound `COC(=O)[C@]1(F)O[C@@H]([C@H](O)[C@H]2COC(C)(C)O2)[C@H](NC(C)=O)[C@@H](N)[C@H]1F`, the results for the concentration in the series on Mus musculus [1] and in the series on Mus musculus [3] were 2.57 µM and 4.86 µM, respectively. The Drug metabolism entry with Mus musculus [2] is “metabolite_detected”.
`CC(=O)N[C@H]1[C@H]([C@H](O)[C@H](O)CO)OC(C(=O)O)=C[C@@H]1N=C(N)N` [ZANAMIVIR]: the concentration at 20 min in [4] came out at 1.31 µM. In [5], the concentration at 1 h came out at 1.3 µM.
Usually half-life stands for the time needed for the level to fall by half in the phase considered. Higher therefore signals slow decline. A word on the Tmax: it is the time from dosing to the highest level. A word on the Cmax: it is the peak of the concentration-time curve. Broadly, the bioavailability is dose-corrected exposure relative to a reference, in per cent. A high value points to much systemic uptake. In turn, `CCOC(=O)C1=C[C@@H](OC(CC)CC)[C@H](NC(C)=O)[C@@H](N)C1` [OSELTAMIVIR] came in with a concentration at 20 min in series [4] of 8.41 µM. Besides, in series [6], the half-life stood at 1.23 h. In addition, the time to peak (Tmax) in [7] is 0.5 h. The Cmax in series [8] came out at 13.5 µM. Moreover, the concentration at 1 h in series [5] was 13.3 µM. Also, the AUC in the series on Mus musculus [9] is 1706 µmol·min. In series [10], this compound returned a bioavailability of 64.5%.
Regarding `CC(=O)N[C@@H]1[C@@H](N)[C@@H](F)[C@](F)(C(=O)O)O[C@H]1[C@H](O)[C@H](O)CO`, the concentration at 20 min in [4] worked out at 2.7 µM; in series [11] it was 4.5 µM. Moreover, the half-life in series [6] was determined as 3.27 h. The time to peak (Tmax) in [7] is 0.333 h. In addition, the concentration in series [8] peaked (Cmax) at 2.8 µM. Moreover, the figures for the concentration at 1 h in series [5] and in [12] were 4.93 µM and 8.21 µM, respectively. In addition, the figures for the AUC with Mus musculus [13] and in the series on Mus musculus [9] were 3394 µmol·min and 320 µmol·min, respectively. Moreover, the bioavailability in series [10] was 3.1%.
On to `CCCCCOC(=O)[C@]1(F)O[C@@H]([C@H](O)[C@H](O)CO)[C@H](NC(C)=O)[C@@H](N)[C@H]1F`, for which the concentration was found to be 2.74 µM in the series on Mus musculus [1] and 3.5 µM in the series on Mus musculus [3]. Moreover, the remaining at 0.25 h, 10 µM in [14] was 81%; in series [18], 100%; in series [19] it was 99%. In addition, the Tmax in the series with Mus musculus [15] was found to be 1 h. Also, the remaining at 1 h, 10 µM in [16] is 24%; in [17] it was 96%; in series [22], 100%. The Cmax in the series on Mus musculus [20] amounted to 4.7 µM. The F in the series with Mus musculus [21] stood at 5.5%. Further, the AUC in the series on Mus musculus [23] is 462 µmol·min.
`CC(=O)N[C@@H]1[C@@H](N)[C@@H](F)[C@](F)(C(=O)OC(C)C)O[C@H]1[C@H](O)[C@H](O)CO`: the figures for the concentration with Mus musculus [1] and in the series with Mus musculus [3] were 12.2 µM and 13 µM, respectively. In addition, the remaining at 0.25 h, 10 µM in series [14] was 100%; in series [18], 99%; in series [19] it was 100%. Besides, the Tmax in the series on Mus musculus [15] came to 1 h. Moreover, the results for the remaining at 1 h, 10 µM in [16], in series [17] and in series [22] were 87%, 98% and 99%, respectively. The Cmax in the series with Mus musculus [20] is 0.5 µM. For the same compound, the F in the series with Mus musculus [21] is 0.9%. The AUC in the series on Mus musculus [23] was found to be 78 µmol·min.
